Source: US12714671B2, “Cell membrane lipid-extracted nanoparticles (CLENs) for selective targeting, image analysis and cancer therapy” (priority 2018, dated 2026)
Counter-ions that a name gives are not always drawn.

Tested on: 4T1 cells
Experiment: Cytotoxicity of doxorubicin-loaded CLENs (SRB assay)
Assay type: cell-based, murine
Conditions: 24 h, free doxorubicin 0.5 μmol/ml
Procedure: 4T1 cells were seeded at 1×10^4 per ml in a 48-well plate. Cells were exposed to different concentrations of doxorubicin-loaded CLENs (4T1, BT-20, and SKBR-3). SRB assay was used to determine percent of cell viability 24 hours following exposure to doxorubicin (5 mol %). Error bars indicate mean±S.D. (n=6).
Sulforhodamine B (SRB) assay was used to determine percent viability of control based on the amount of basic proteins in viable cells following exposure to different CLENs. Cells were seeded at 1×10^4 per ml in a 48-well plate. Columns of cells in the 48 well plate were exposed to either doxil, free doxorubicin, SKBR-3, BT-20 or 4T1 CLENs-loaded with doxorubicin (5 mol %). […] Finally, 1 mL of 1×PBS was added to each well and the plate was analyzed using a fluorescence microplate reader. The fluorescence intensity was measured at excitation wavelength of 540/20 nm and emission wavelength of 590/20 nm using FLX 800 Fluorescence Microplate Reader (Bio-tech Instruments, Winooski, VT).
Enhanced cellular uptake and selective drug targeting are important features of a drug delivery system, but how each translates overall to therapy is critical to success. For this reason, cytotoxicity of three different doxorubicin-loaded CLENs was evaluated for 4T1, BT-20 and SKBR-3 variety, doxil, and free doxorubicin (0.5 μmol/ml) against the growth of 4T1 cells in vitro. […]

Compound: COc1cccc2c1C(=O)c1c(O)c3c(c(O)c1C2=O)C[C@@](O)(C(=O)CO)C[C@@H]3O[C@H]1C[C@H](N)[C@H](O)[C@H](C)O1 [free doxorubicin, Doxorubicin hydrochloride]
- cytotoxicity against growth of 4T1 cells (comparison in words): No significant difference in cytotoxicity
